Results reported in paper PMC11945657, “Microwave-Assisted Synthesis of Morpholine-Based Chalcones as Reversible MAO-A Inhibitors in the Management of Mental Depression” (Pharmaceuticals, 2025).
Values joined by “and” are separate entries in the source; they are usually repeats but may differ in a detail not shown here. Identical values can stand only once. Like-named read-outs stand apart in the source and are kept apart here.

Tests used:
MAO-A = conditions: Figure 1, read-out: MAO-A inhibition, cited from earlier work
hMAO-A [1] = biological target: T1, hMAO-A (Homo sapiens, UniProt P21397); experiment: MAO inhibition assay (Amplex Red, fluorimetric), MAO-A
T1 sequence (P21397 1-527): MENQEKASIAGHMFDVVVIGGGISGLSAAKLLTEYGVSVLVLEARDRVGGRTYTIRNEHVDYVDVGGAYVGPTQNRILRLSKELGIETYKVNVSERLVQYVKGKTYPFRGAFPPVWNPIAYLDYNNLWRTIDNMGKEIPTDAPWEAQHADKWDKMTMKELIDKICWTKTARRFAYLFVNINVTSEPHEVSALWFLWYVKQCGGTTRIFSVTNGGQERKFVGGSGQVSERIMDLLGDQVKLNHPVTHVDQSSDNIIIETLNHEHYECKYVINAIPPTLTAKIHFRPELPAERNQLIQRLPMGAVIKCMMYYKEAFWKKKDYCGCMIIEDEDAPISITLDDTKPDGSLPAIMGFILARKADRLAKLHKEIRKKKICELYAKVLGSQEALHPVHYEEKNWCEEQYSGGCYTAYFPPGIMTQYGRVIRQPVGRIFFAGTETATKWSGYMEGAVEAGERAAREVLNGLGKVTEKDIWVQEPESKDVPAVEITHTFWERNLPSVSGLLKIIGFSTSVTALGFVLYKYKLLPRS

hMAO-B = biological target: T2, hMAO-B (Homo sapiens, UniProt P27338); experiment: MAO inhibition assay (Amplex Red, fluorimetric), MAO-B
T2 sequence (P27338 1-520): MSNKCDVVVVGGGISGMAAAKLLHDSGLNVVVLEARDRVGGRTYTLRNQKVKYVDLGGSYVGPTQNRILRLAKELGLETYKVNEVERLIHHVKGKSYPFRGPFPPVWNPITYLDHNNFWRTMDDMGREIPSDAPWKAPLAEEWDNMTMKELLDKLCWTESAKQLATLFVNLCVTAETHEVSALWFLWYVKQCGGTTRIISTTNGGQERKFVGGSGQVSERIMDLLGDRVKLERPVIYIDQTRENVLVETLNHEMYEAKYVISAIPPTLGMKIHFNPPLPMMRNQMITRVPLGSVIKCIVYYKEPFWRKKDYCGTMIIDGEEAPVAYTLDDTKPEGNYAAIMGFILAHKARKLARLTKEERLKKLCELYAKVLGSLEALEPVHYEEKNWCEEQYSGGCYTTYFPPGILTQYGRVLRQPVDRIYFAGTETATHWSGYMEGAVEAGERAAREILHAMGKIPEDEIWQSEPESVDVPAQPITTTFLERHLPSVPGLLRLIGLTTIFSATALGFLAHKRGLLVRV

hMAO-A [2] = biological target: T1, hMAO-A; experiment: Reversibility inhibition study (dilution method); assay type: biochemical; set-up: purchased Sigma-Aldrich; conditions: for reversibility of hMAO-A inhibition: dilution method
Description: Reversibility inhibition investigations were conducted using dilution methods as per the reported protocol, and all experiments were performed in triplicate. […] Substrate and buffer solutions were used for the dilution.

[3] = DPPH free radical scavenging antioxidant assay; conditions: for antioxidant potential in the DPPH assay: concentration not given
Description: H2O2 produced during metabolic events in the brain may be crucial for signaling and metabolic functions. The compounds were screened to check their potential to inhibit ROS through the DPPH assay. […] However, further studies are required to confirm this effect.
The DPPH approach, which gauges the free radical scavenging activity, was used to evaluate the antioxidant properties of the compounds. The test was performed according to the literature method. The stock solution of DPPH (0.5 mM) was prepared, and methanol was used to create each dilution. The different concentrations (10, 25, 50, 75, and 100 μM) of the test compounds (C1–C15) were prepared and compared with the standard ascorbic acid. The percentage antioxidant activity of the compounds was calculated using the following formula: % Antioxidant activity = [(Aabsorbance − Atest)/Aabsorbance] × 100.

hMAO-A [4] = biological target: T1, hMAO-A; set-up: purchased Sigma-Aldrich; conditions: Figure 1, read-out: hMAO-A inhibition; cited from earlier work
[5] = read-out: Percentage Inhibition at 20 μM MAO-A, 20 μM
[6] = read-out: Percentage Inhibition at 20 μM MAO-B
[7] = 0.1 × IC50, after 100 times dilution with tyramine substrate
[8] = 1 × IC50, after 100 times dilution with tyramine substrate
[9] = read-out: IC50 Values MAO-A, class symbol, IC50 not calculated

Structure (SMILES): COc1cc(OC)c(/C=C/C(=O)c2ccc(Br)cc2)c(OC)c1 [Compound 1]
- IC50 (MAO-A): 0.56 ± 0.076 µM

Structure (SMILES): O=C(/C=C/c1ccc(C(F)(F)F)cc1)c1ccc[nH]1 [Compound 3]
- IC50 (MAO-A): 3.81 ± 0.387 µM

Structure (SMILES): O=C(/C=C/c1ccc(F)cc1F)c1ccc(N2CCOCC2)cc1 [Compound C14, (E)-3-(2,4-Difluorophenyl)-1-(4-morpholinophenyl)prop-2-en-1-one]
- IC50 (hMAO-A [1]): 7.91 ± 0.08 µM
- Percentage Inhibition at 20 μM MAO-A (hMAO-A [1]): 75.45%
- inhibition at 20 µM (hMAO-A [1]; [5]): 75.4%
- inhibition at 20 µM (hMAO-B; read-out: IC50 Values MAO-B): < 50%
- inhibition at 20 µM (hMAO-B; [6]): 35.3%
- % MAO-A activity (hMAO-A [2]; [7]): 65.33%
- % MAO-A activity (hMAO-A [2]; [8]): 35.76%
- % MAO-A activity (hMAO-A [2]; 10 × IC50, before dilution): 6.67%
- % MAO-A activity (hMAO-A [2]; 100 × IC50, before dilution): 3.28%
- reversibility of hMAO-A inhibition (hMAO-A [2]): reversibly inhibit
- % Antioxidant Activity ([3]; 10 µM): 10.51%
- % Antioxidant Activity ([3]; 25 µM): 18.21%
- % Antioxidant Activity ([3]; 50 µM): 41.12%
- % Antioxidant Activity ([3]; 75 µM): 50% and 53.12%
- % Antioxidant Activity ([3]; 100 µM): 59.51%
- antioxidant potential in the DPPH assay [3]: more than 50%

Structure (SMILES): O=C(/C=C/c1ccc(F)c(F)c1)c1ccc(N2CCOCC2)cc1 [Compound C6, (E)-3-(3,4-Difluorophenyl)-1-(4-morpholinophenyl)prop-2-en-1-one]
- IC50 (hMAO-A [1]): 8.45 ± 0.19 µM
- Percentage Inhibition at 20 μM MAO-A (hMAO-A [1]): 71.67%
- inhibition at 20 µM (hMAO-A [1]; [5]): 71.6%
- inhibition at 20 µM (hMAO-B; read-out: IC50 Values MAO-B): < 50%
- inhibition at 20 µM (hMAO-B; [6]): 31.9%
- % MAO-A activity (hMAO-A [2]; [7]): 68.83%
- % MAO-A activity (hMAO-A [2]; [8]): 38.95%
- % MAO-A activity (hMAO-A [2]; 10 × IC50, before dilution): 8.32%
- % MAO-A activity (hMAO-A [2]; 100 × IC50, before dilution): 3.41%
- reversibility of hMAO-A inhibition (hMAO-A [2]): reversibly inhibit
- % Antioxidant Activity ([3]; 10 µM): 12.25%
- % Antioxidant Activity ([3]; 25 µM): 24.46%
- % Antioxidant Activity ([3]; 50 µM): 36.03%
- % Antioxidant Activity ([3]; 75 µM): 50% and 53.39%
- % Antioxidant Activity ([3]; 100 µM): 55.16%
- antioxidant potential in the DPPH assay [3]: more than 50%

Structure (SMILES): COc1cc(OC)c(/C=C/C(=O)c2ccc(F)cc2)c(OC)c1 [Compound 4]
- IC50 (MAO-A): 0.444 ± 0.039 µM

Structure (SMILES): CCOc1ccc(C(=O)/C=C/c2ccc(F)cc2)cc1 [Compound 2]
- IC50 (hMAO-A [4]): 4.63 ± 0.15 µM

Structure (SMILES): COc1cc(C(=O)/C=C/c2ccc([N+](=O)[O-])cc2)cc(OC)c1OC [Compound 5]
- Ki (MAO-A; Ki): 3.47 ± 0.09 µM

Structure (SMILES): O=C(/C=C/c1ccc(F)cc1)c1ccc(N2CCOCC2)cc1 [Compound C3, (E)-3-(4-Fluorophenyl)-1-(4-morpholinophenyl)prop-2-en-1-one]
- inhibition at 20 µM (hMAO-A [1]; [9]): < 50%
- inhibition at 20 µM (hMAO-A [1]; [5]): 37.7%
- inhibition at 20 µM (hMAO-B; read-out: IC50 Values MAO-B): < 50%
- inhibition at 20 µM (hMAO-B; [6]): 7.11%
- % Antioxidant Activity ([3]; 10 µM): 14.58%
- % Antioxidant Activity ([3]; 25 µM): 38.25%
- % Antioxidant Activity ([3]; 50 µM): 40.31%
- % Antioxidant Activity ([3]; 75 µM): 50% and 53.10%
- % Antioxidant Activity ([3]; 100 µM): 56.87%

Structure (SMILES): O=C(/C=C/c1cccc(F)c1)c1ccc(N2CCOCC2)cc1 [Compound C10, (E)-3-(3-Fluorophenyl)-1-(4-morpholinophenyl)prop-2-en-1-one]
- inhibition at 20 µM (hMAO-A [1]; [9]): < 50%
- inhibition at 20 µM (hMAO-A [1]; [5]): 33.9%
- inhibition at 20 µM (hMAO-B; read-out: IC50 Values MAO-B): < 50%
- inhibition at 20 µM (hMAO-B; [6]): 12.4%
- % Antioxidant Activity ([3]; 10 µM): 17.09%
- % Antioxidant Activity ([3]; 25 µM): 21.05%
- % Antioxidant Activity ([3]; 50 µM): 34.56%
- % Antioxidant Activity ([3]; 75 µM): 42.27%
- % Antioxidant Activity ([3]; 100 µM): 32.62%
